Measured values: patent US20260344668A1, “PHENYLPYRAZOLE COMPOUND, AND PLANT DISEASE CONTROL METHOD” (priority 2022, published 2026)

What was measured:
[1] = system: Phakopsora pachyrhizi; test: Test Example 11 Control Test Against Soybean Rust (pot test, spraying before inoculation); format: in vivo; details: 200 ppm foliage spray, soybeans (Kurosengoku), inoculated after 2 to 5 days
Procedure: (§1) The term of “non-treated well” in Test Example 4, Test Example 5, and Test Example 6 represents a well wherein a test was carried out under the same conditions as those described in each Test Example except for dispensing DMSO instead of a diluted solution with DMSO comprising the Present compound. Also, the term of “non-treated” in Test Examples 15 to 17 represents a test which was carried out under the same conditions as those described in each Test Example except for dispensing DMSO instead of a diluted solution with DMSO comprising the Present compound. Also, the term of “non-treated leaf disk” in Test Example 7 represents a leaf disk wherein a test was carried out under the same conditions as those described in the Test Example except for dispensing DMSO instead of a diluted solution with DMSO comprising the Present compound. Also, the term of “non-treated” in Test Example 10 and Test Example 11 means that a diluted solution with water of a formulation comprising the Present compound was not sprayed.
A plastic pot was filled with soil, soybeans (cultivar: Kurosengoku) were seeded thereto, and cultured in a greenhouse for 10 to 14 days. The Present compound 9, 10, 11, 13, 14, 15, 17, 18, 20, 21, 22, 23, 26, 27, 33, 34, 35, 36, 37, 38, 39, 40, 41, 42, 43, 44, 46, 47, 53, 54, 55, 56, 57, 58, 66, 67, 68, 69, 70, 71, 73, 74, 75, 76, 77, 78, 79, 80, 81, 82, 83, 84, 85, 86, 87, 88, 89, 90, 91, 92, 93, 94, 95, 96, 97, 98, 99, 100, 101, or 102 formulated according to the method described in the Formulation Example 1 was mixed with water in such a way that the concentration thereof was 200 ppm, and the resulting mixture was sprayed to foliage of the above soybeans so as to adequately adhere onto the surfaces of leaves of the above soybeans. After spraying the mixture, the soybeans were air-dried. After 2 to 5 days, an aqueous suspension of spores of Phakopsora pachyrhizi was inoculated by spraying to the soybeans. After the inoculation, the soybeans were placed in a greenhouse at 23° C. in daytime and at 20° C. in nighttime under a humid condition for 1 to 2 day(s), then cultured in a greenhouse for 12 days, and then a lesion area was investigated. As a result, the lesion area in the soybeans treated with each of the above Present compound was 30% or less relative to the lesion area in the non-treated soybeans.

[2] = system: soybean rust fungus (Phakopsora pachyrhizi) having an amino acid substitution of F129L in a mitochondrial cytochrome b protein; test: Test Example 7 Control Test Against Soybean Rust (leaf disk); format: in vivo; details: 200 ppm, 10 μL per soybean leaf disk (cultivar: Kurosengoku), inoculated after 1 day
Procedure: as §1
A true leaf of a soybean (cultivar: Kurosengoku) was cut into a diameter of 1 cm to prepare each leaf disk. To each well of a 24 well microplate was dispensed 1 mL of an agar medium (agar concentration 1.2%), and then one of said leaf disk was placed on the agar medium in each well. To a mixture of Sorpol (registered trademark) 1200KX (0.5 μL), DMSO (4.5 μL), and xylene (5 μL) was added a DMSO solution (20 μL) comprising a test compound (10000 ppm), and the resulting mixture was mixed. The resulting mixture was diluted with ion exchange water to prepare a mixture comprising a prescribed concentration of the test compound.
The resulting mixture was sprayed into each leaf disk at a ratio of 10 μL per leaf disk. After 1 day, an aqueous suspension of spores of soybean rust fungus (Phakopsora pachyrhizi) having an amino acid substitution of F129L in a mitochondrial cytochrome b protein (1.0×10^5/mL) was inoculated by spraying on each leaf disk. After the inoculation, the microplate was placed into an artificial climate chamber (Lighting: 6 hours, Lights-out: 18 hours, Temperature: 23° C., Humidity: 60%). After 1 day, the leaf disks were air-dried until water droplets on the surfaces of the leaf disks disappeared, and the microplate was placed into the artificial climate chamber again for 12 days. Then, lesion area of soybean rust was investigated. As a result, when the prescribed concentration was 200 ppm, each lesion area of leaf disk treated with any one of the Present compound 9, 10, 11, 13, 14, 15, 16, 17, 18, 20, 32, 33, 34, 35, 36, 37, 38, 39, 40, 42, 43, 44, 47, 48, 49, 50, 51, 52, 53, 55, 56, 57, 58, 62, 63, 64, 65, 66, 67, 68, 69, 70, 71, 73, 74, 75, 76, 77, 78, 79, 80, 81, 82, 83, 84, 85, 86, 87, 88, 89, 90, 91, 92, 93, 94, 95, 96, 97, 98, 99, 100, 101, or 102 as the test compound was 30% or less relative to the lesion area of non-treated leaf disk.

[3] = system: Phakopsora pachyrhizi; test: Test Example 15 Control Test Against Soybean Rust Fungus (spore germination, 96 well titer plate); format: cell-based; details: treatment concentration 1 ppm, 23° C., several hours
Procedure: as §1
The Present compound was diluted with DMSO to obtain a diluted solution containing 150 ppm of the compound, and 1 μL of the diluted solution was dispensed into a titer plate (96 well), and thereto was then dispensed 149 μL of an aqueous suspension (1.0×10^4/mL) of spores of Phakopsora pachyrhizi to which spores of Phakopsora pachyrhizi were suspended in advance. This plate was cultured at 23° C. for several hours, and then germinated spores of Phakopsora pachyrhizi were counted. As a result, when the treatment concentration was 1 ppm, the number of germinated spores in each well comprising any one of the Present compound 1, 11, 17, 18, 20, 23, 30, 33, 34, 35, 36, 37, 38, 39, 40, 41, 42, 43, 44, 46, 47, 48, 49, 50, 51, 52, 53, 54, 55, 56, 57, 58, 62, 63, 64, 65, 66, 67, 68, 69, 70, 71, 72, 73, 74, 75, 76, 77, 78, 79, 80, 81, 82, 83, 84, 85, 86, 87, 88, 89, 90, 91, 92, 93, 94, 95, 96, 97, 98, 99, 100, 101, or 102 as the test compound was 50% or less relative to the number of germinated spores in the non-treated well.

[4] = system: Cochliobolus miyabeanus; test: Test Example 6 Control Test Against Rice Brown Spot Fungus (96 well titer plate growth); format: cell-based; details: 1 μL of 150 ppm DMSO solution + 150 μL YB liquid medium, 23° C., 3 days, absorbance at 550 nm
Procedure: as §1
Each of the Present compound 17, 33, 36, 37, 39, 40, 41, 42, 43, 44, 48, 49, 50, 51, 52, 53, 62, 68, 69, 70, 71, 76, 77, 79, 80, 81, 82, 83, 84, or 97 was diluted with DMSO to obtain a diluted solution containing 150 ppm of each compound, and 1 μL of the diluted solution was dispensed into a titer plate (96 well), and thereto was then dispensed 150 μL of a YB liquid medium to which spores of Cochliobolus miyabeanus were inoculated in advance. This plate was cultured at 23° C. for 3 days, thereby allowing Cochliobolus miyabeanus to undergo proliferation, and the absorbance at 550 nm of each well of the titer plate was then measured to determine a degree of growth of Cochliobolus miyabeanus. As a result, the degree of growth in the well treated with each of the above Present compounds was 50% or less relative to the degree of growth in the non-treated well.

Row | SMILES | lesion area relative to the lesion area in the non-treated soybeans [1] [%] | lesion area relative to the lesion area of non-treated leaf disk [2] [%] | number of germinated spores relative to the non-treated well [3] [%] | degree of growth relative to the degree of growth in the non-treated well [4] [%]
1 | O=S(=O)(c1cccc(F)c1)n1ccc(-c2cc(F)c(Br)c(F)c2)n1 [compound 17] | ≤ 30 | ≤ 30 | ≤ 50 | ≤ 50
2 | O=S(=O)(c1cccs1)n1ccc(-c2cc(F)c(Br)c(F)c2)n1 [compound 33] | ≤ 30 | ≤ 30 | ≤ 50 | ≤ 50
3 | O=S(=O)(c1ccoc1)n1ccc(-c2cc(F)c(Br)c(F)c2)n1 [compound 36] | ≤ 30 | ≤ 30 | ≤ 50 | ≤ 50
4 | O=S(=O)(c1ccco1)n1ccc(-c2cc(F)c(Br)c(F)c2)n1 [compound 37] | ≤ 30 | ≤ 30 | ≤ 50 | ≤ 50
5 | O=S(=O)(c1cccs1)n1ccc(-c2ccc(C(F)(F)F)c(F)c2)n1 [compound 39] | ≤ 30 | ≤ 30 | ≤ 50 | ≤ 50
6 | O=S(=O)(c1cccs1)n1ccc(-c2ccc(Br)c(F)c2)n1 [compound 40] | ≤ 30 | ≤ 30 | ≤ 50 | ≤ 50
7 | CSc1ccc(-c2ccn(S(=O)(=O)c3cccs3)n2)cc1 [compound 41] | ≤ 30 | – | ≤ 50 | ≤ 50
8 | O=S(=O)(c1cccs1)n1ccc(-c2ccc(C3CC3)cc2)n1 [compound 42] | ≤ 30 | ≤ 30 | ≤ 50 | ≤ 50
9 | Cc1ccc(-c2ccn(S(=O)(=O)c3cccs3)n2)cc1 [compound 43] | ≤ 30 | ≤ 30 | ≤ 50 | ≤ 50
10 | O=[N+]([O-])c1ccc(-c2ccn(S(=O)(=O)c3cccs3)n2)cc1 [compound 44] | ≤ 30 | ≤ 30 | ≤ 50 | ≤ 50
11 | O=S(=O)(c1ccco1)n1ccc(-c2ccc(Br)c(F)c2)n1 [compound 50] | – | ≤ 30 | ≤ 50 | ≤ 50
12 | O=S(=O)(c1ccoc1)n1ccc(-c2ccc(Br)cc2)n1 [compound 51] | – | ≤ 30 | ≤ 50 | ≤ 50
13 | O=S(=O)(c1ccoc1)n1ccc(-c2ccc(Br)c(F)c2)n1 [compound 52] | – | ≤ 30 | ≤ 50 | ≤ 50
14 | O=S(=O)(c1cccnc1)n1ccc(-c2ccc(Br)c(F)c2)n1 [compound 53] | ≤ 30 | ≤ 30 | ≤ 50 | ≤ 50
15 | O=S(=O)(c1cccs1)n1ccc(-c2ccc3c(c2)CCC3)n1 [compound 62] | – | ≤ 30 | ≤ 50 | ≤ 50
